The values below come from the NIST ThermoML archive (doi:10.1016/j.jct.2005.03.020).

Numbers after ± are expanded uncertainties.

The nature of data set [1]: refractive index (Na D-line) (dimensionless). As to conditions: 298.15 K; 101.33 kPa; Liquid; Standard Abbe refractometry.
The conditions of data set [2]: 298.15 K; 101.33 kPa; Liquid.
Data set [3] can be described thus: xn = mol fraction of the nth substance listed. Particulars: 298.15 K, 101.33 kPa, Liquid.
A short description of data set [4]: excess molar enthalpy (molar enthalpy of mixing); xn = mol fraction of the nth substance listed. As to conditions: 298.15 K, 101.33 kPa, Liquid.

For orientation: refractive index means the speed of light in vacuum divided by its phase velocity in the sample. Usually mass density stands for mass per unit of volume. In the case of `CCCCC(=O)OCC` [ethyl pentanoate], the refractive index in data set [1] turned out to be 1.398 ± 0.0008. Besides, the mass density in data set [2] came out at 869.42 ± 0.62 kg/m3.
As for `ClCCCCl` [1,3-dichloropropane], in data set [1], the refractive index is listed as 1.4455 ± 0.0008. Also, in data set [2], the mass density is 1178.34 ± 0.8 kg/m3.
Taken in the same sequence, the figures for `ClCCCCCl` [1,4-dichlorobutane] were 1.452 ± 0.0008 and 1133.32 ± 0.72 kg/m3.
Taken in the same sequence, the figures for `ClCCCCCCl` [1,5-dichloropentane] were 1.454 ± 0.0008 and 1095.27 ± 0.66 kg/m3.
Turning to `CCCC(=O)OCC` [ethyl butanoate], the refractive index in data set [1] stood at 1.3895 ± 0.0008. Moreover, in data set [2], the mass density worked out at 873.54 ± 1.1 kg/m3.
Taken in the same sequence, the figures for `CCOC=O` [ethyl methanoate] were 1.358 ± 0.0009 and 914.17 ± 1.6 kg/m3.
On to `CCOC(C)=O` [ethyl acetate], for which the refractive index in data set [1] was 1.3692 ± 0.0007. The mass density in data set [2] is 894.33 ± 0.3 kg/m3.
In the same order, the values of `CCOC(=O)CC` [ethyl propanoate] are 1.3815 ± 0.0008 and 884.02 ± 0.6 kg/m3.
On to `ClCCCl` [1,2-dichloroethane], for which the refractive index in data set [1] turned out to be 1.442 ± 0.0007. For the same compound, the mass density in data set [2] came out at 1245.65 ± 0.46 kg/m3.
With `ClCCCCCCl` [1,5-dichloropentane] + CCCCC(=O)OCC, the mass density in data set [3] (x2 = 0.1036) is 1068.61 ± 0.64 kg/m3; in data set [3] (x2 = 0.1561) it was 1055.46 ± 0.62 kg/m3; in data set [3] (x2 = 0.2082) it was 1042.59 ± 0.6 kg/m3; in data set [3] (x2 = 0.2623), 1029.48 ± 0.58 kg/m3; in data set [3] (x2 = 0.3179), 1016.24 ± 0.56 kg/m3; in data set [3] (x2 = 0.3785), 1002.01 ± 0.54 kg/m3. Also, the mass density in data set [3] (x2 = 0.4369) was 988.54 ± 0.54 kg/m3; in data set [3] (x2 = 0.4943) it was 975.55 ± 0.55 kg/m3; in data set [3] (x2 = 0.5534) it was 962.34 ± 0.56 kg/m3; in data set [3] (x2 = 0.6141), 949.06 ± 0.57 kg/m3; in data set [3] (x2 = 0.6755), 935.8 ± 0.58 kg/m3; in data set [3] (x2 = 0.7367), 922.8 ± 0.59 kg/m3. Moreover, the mass density in data set [3] (x2 = 0.8008) is reported as 909.43 ± 0.61 kg/m3; in data set [3] (x2 = 0.8658), 896.13 ± 0.62 kg/m3; in data set [3] (x2 = 0.9318) it was 882.79 ± 0.64 kg/m3. For the same compound, the excess molar enthalpy in data set [4] (x2 = 0.0481) was -0.00244 ± 0.000406 kcal/mol; in data set [4] (x2 = 0.1066), -0.00762 ± 0.000502 kcal/mol; in data set [4] (x2 = 0.1663) it was -0.0128 ± 0.000574 kcal/mol; in data set [4] (x2 = 0.228), -0.0206 ± 0.000693 kcal/mol; in data set [4] (x2 = 0.2876), -0.0279 ± 0.000813 kcal/mol; in data set [4] (x2 = 0.3438), -0.0357 ± 0.000932 kcal/mol. The excess molar enthalpy in data set [4] (x2 = 0.3973) was -0.0434 ± 0.00105 kcal/mol; in data set [4] (x2 = 0.416), -0.0465 ± 0.0011 kcal/mol; in data set [4] (x2 = 0.4433) it was -0.0493 ± 0.00112 kcal/mol; in data set [4] (x2 = 0.4786) it was -0.0512 ± 0.00117 kcal/mol; in data set [4] (x2 = 0.5288), -0.0522 ± 0.00117 kcal/mol; in data set [4] (x2 = 0.5848), -0.0517 ± 0.00117 kcal/mol. The excess molar enthalpy was -0.05 ± 0.00115 kcal/mol in data set [4] (x2 = 0.6478); -0.0433 ± 0.00105 kcal/mol in data set [4] (x2 = 0.7165); -0.0365 ± 0.000932 kcal/mol in data set [4] (x2 = 0.7867); -0.0264 ± 0.000789 kcal/mol in data set [4] (x2 = 0.8597); -0.0137 ± 0.000598 kcal/mol in data set [4] (x2 = 0.9325).
Take `ClCCCCCCCl` [1,6-dichlorohexane]: the refractive index in data set [1] came to 1.4555 ± 0.0008. The mass density in data set [2] was 1063.72 ± 1.2 kg/m3.
